Results from US8106055B2, “Substituted amide compounds” (Gruenenthal GmbH, priority 2007, dated 2012).
Read-outs that look alike come from different tables or passages of the source.

What was measured:
human μ opiate receptor = molecular target: T1, human μ opiate receptor (Homo sapiens, UniProt P35372); assay: Affinity for the human μ opiate receptor ([3H]-naloxone displacement, CHO-K1 receptor membrane preparation, SPA); type: binding
T1 construct: purchased PerkinElmer Life Sciences, Zaventem, Belgium RB-HOM; host or cells: CHO-K1 cells (membrane preparation)
T1 sequence (P35372 whole entry): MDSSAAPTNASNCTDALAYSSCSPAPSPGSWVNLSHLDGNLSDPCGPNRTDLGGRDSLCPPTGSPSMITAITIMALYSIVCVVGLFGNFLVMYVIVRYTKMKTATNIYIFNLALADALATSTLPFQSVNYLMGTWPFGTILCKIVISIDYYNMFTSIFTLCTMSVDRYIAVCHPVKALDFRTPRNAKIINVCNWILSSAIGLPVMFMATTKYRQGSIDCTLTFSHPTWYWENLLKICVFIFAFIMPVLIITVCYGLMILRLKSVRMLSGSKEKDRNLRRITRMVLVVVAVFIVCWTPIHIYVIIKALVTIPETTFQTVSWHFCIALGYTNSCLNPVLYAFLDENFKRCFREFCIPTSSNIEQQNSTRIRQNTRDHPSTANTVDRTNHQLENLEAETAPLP
Outline: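 Scintillation proximity binding on human μ receptor membranes from CHO-K1 cells used 1 nmol/l [3H]-naloxone over 90 min at room temperature in 50 mmol/l Tris-HCl, 0.06% BSA. Percent inhibition was recorded at 1 μM.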

[1] = molecular target: T2, human bradykinin 1 receptor (B1R) (Homo sapiens, UniProt P46663); assay: Functional investigation on the human bradykinin 1 receptor (B1R), Ca2+ FLIPR assay in CHO K1 hB1R cells; type: cell-based; conditions: test substance 10 μM, Ca2+ FLIPR, CHO K1 hB1R cells; for inhibition at 10 µM: CHO-K1, B1R antagonism human, read-out: B1R Ant. h [10 μM] % Inhibition; for B1R Ant. h [10 μM] % Inhibition: B1R antagonism human
T2 construct: expressed in transfected cells; host or cells: CHO K1 cells
T2 sequence (P46663 1-353): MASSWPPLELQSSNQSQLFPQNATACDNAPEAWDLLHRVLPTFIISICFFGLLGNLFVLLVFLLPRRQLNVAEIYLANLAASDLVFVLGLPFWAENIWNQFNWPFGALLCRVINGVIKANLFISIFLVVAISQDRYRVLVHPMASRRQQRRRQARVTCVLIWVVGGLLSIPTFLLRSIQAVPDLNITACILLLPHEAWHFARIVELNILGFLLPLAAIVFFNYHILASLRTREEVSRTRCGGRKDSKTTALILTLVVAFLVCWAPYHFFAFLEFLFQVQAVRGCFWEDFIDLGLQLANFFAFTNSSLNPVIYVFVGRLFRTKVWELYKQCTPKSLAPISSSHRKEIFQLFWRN
Outline: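 Cells were dye-loaded with Fluo-4 plus probenecid, then test substances added and Ca2+ influx compared with agonist control for % activation. After 10-20 min, EC80 agonist (Lys-Des-Arg9-bradykinin human; Des-Arg9-bradykinin rat) was applied; suppression gave % inhibition and IC50 values.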

[2] = molecular target: T3, serotonin (5-HT) reuptake (Rattus norvegicus, UniProt P31652); assay: Inhibition of serotonin (5HT) reuptake in synaptosomes from rat brain; type: biochemical
T3 construct: synaptosomes are freshly isolated from areas of the rat brain; from tissue; host or cells: rat brain synaptosomes (P2 fraction)
T3 sequence (P31652 whole entry): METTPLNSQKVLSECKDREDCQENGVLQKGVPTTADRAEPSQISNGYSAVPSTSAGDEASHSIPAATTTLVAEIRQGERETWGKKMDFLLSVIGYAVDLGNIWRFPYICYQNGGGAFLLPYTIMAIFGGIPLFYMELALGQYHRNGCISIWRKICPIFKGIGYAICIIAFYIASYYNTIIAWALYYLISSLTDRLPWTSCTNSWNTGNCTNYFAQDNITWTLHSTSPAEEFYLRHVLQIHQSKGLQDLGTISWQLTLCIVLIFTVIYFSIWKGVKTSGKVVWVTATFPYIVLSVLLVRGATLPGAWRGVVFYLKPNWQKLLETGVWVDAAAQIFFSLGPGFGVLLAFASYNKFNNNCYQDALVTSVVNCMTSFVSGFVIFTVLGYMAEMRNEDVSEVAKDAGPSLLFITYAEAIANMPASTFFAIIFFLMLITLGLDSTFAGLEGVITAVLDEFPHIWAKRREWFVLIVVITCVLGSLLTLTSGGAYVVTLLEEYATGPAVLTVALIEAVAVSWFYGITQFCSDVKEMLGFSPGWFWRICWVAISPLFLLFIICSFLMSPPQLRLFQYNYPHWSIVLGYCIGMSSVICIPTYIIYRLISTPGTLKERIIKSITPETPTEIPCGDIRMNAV
Experimental: Binding data of the compounds on the μ opioid receptor and data on the inhibition of reuptake of serotonin (5-HT) are given in Table 1. The data for the μ receptor were measured at a test concentration of 1 μM, and those for the serotonin reuptake at 10 μM. The values are stated in % inhibition.
Inhibition of Serotonin (5HT) Reuptake
In order to be able to carry out these in vitro studies, synaptosomes are freshly isolated from areas of the rat brain. In each case a so-called “P2” fraction prepared in accordance with the instructions of Gray and Whittaker (E. G. Gray and V. P. Whittaker (1962) J. Anat. 76, 79-88) is prepared. For the NA uptake, these vesicular particles are isolated from the hypothalamus of male rat brains.
A detailed description of the method can be found in the literature (M. Ch. Frink, H.-H. Hennies, W. Englberger, M. Haurand and B. Wilffert (1996) Arzneim.-Forsch./Drug Res. 46 (III), 11, 1029-1036).

[3] = test concentration of 1 μM, read-out: μ (binding on the μ opioid receptor, % inhibition)
[4] = test concentration of 10 μM, read-out: 5-HT (inhibition of reuptake of serotonin, % inhibition)
[5] = 1.5 h, Table 2, test concentration 1 μM, read-out: μ receptor
[6] = Table 2, test concentration 10 μM, read-out: 5-HT reuptake

SMILES | inhibition at 1 µM (human μ opiate receptor; [3]) [%] | inhibition at 10 µM [1] [%] | inhibition at 10 µM [2, 4] [%] | μ (binding on the μ opioid receptor, % inhibition) (human μ opiate receptor; test concentration of 1 μM) [%] | B1R Ant. h [10 μM] % Inhibition [1] [%] | 5-HT (inhibition of reuptake of serotonin, % inhibition) ([2]; test concentration of 10 μM) [%] | inhibition at 1 µM (human μ opiate receptor; [5]) [%] | inhibition at 10 µM [2, 6] [%]
COc1ccc(S(=O)(=O)N2CCCCC2COCC(=O)NC2CCC(C(c3ccccc3)N(C)C)CC2)c(OC)c1 (stereo not drawn) [Example 187, 2-((1-(2,4-dimethoxyphenylsulfonyl)piperidin-2-yl)methoxy)-N-(4-((dimethylamino)(phenyl)methyl)cyclohexyl)acetamide] | 79 | -6 | 81 | – | – | – | – | –
COc1ccc(S(=O)(=O)N2CCCCC2COCC(=O)NC2CCC(C(c3ccccc3)N(C)C)CC2)cc1OC (stereo not drawn) [Example 198, 2-((1-(3,4-dimethoxyphenylsulfonyl)piperidin-2-yl)methoxy)-N-(4-((dimethylamino)(phenyl)methyl)cyclohexyl)acetamide] | 78 | -12 | 88 | – | – | – | – | –
CN(C)C(c1ccccc1)C1CCC(NC(=O)COC2CCN(S(=O)(=O)c3ccccc3)CC2)CC1 (stereo not drawn) [Example 257] | – | – | – | 74 | 26 | 86 | – | –
CN(C)C(c1ccccc1)C1CCC(NC(=O)COCc2c(N(C)S(=O)(=O)c3ccc(Cl)c(Cl)c3)sc3c2CCCC3)CC1 (stereo not drawn) [Example 369] | – | – | – | 66 | 21 | 66 | – | –
COc1cc(C)c(S(=O)(=O)N(C)CCOCC(=O)NC2CCC(C(c3ccc(F)cc3)N(C)C)CC2)c(C)c1C (stereo not drawn) [Example 380] | – | – | – | 55 | 86 | 81 | – | –
Cc1cc(C)c(S(=O)(=O)N(C)CCOCC(=O)NCCC2CCC(C(c3cccs3)N(C)C)CC2)c(C)c1 (stereo not drawn) [Example 385] | – | – | – | 59 | 15 | 93 | – | –
Cc1cc(C)c(S(=O)(=O)N(C)CCOCC(=O)NCCC2CCC(C(c3ccc(F)cc3)N(C)C)CC2)c(C)c1 (stereo not drawn) [Example 417] | – | – | – | 60 | 100 | 91 | – | –
COc1cc(C)c(S(=O)(=O)N(C)CCOCC(=O)NCC2CCC(C(CCc3ccccc3)N(C)C)CC2)c(C)c1C (stereo not drawn) [Example 453] | – | – | – | 46 | 97 | 89 | – | –
CN(C)C(c1cccs1)C1CCC(CCNC(=O)COCCN(C)S(=O)(=O)c2c(F)c(F)c(F)c(F)c2F)CC1 (stereo not drawn) [Example 465] | – | – | – | 48 | −3 | 72 | – | –
COc1cc(C)c(S(=O)(=O)N(CCOCC(=O)NC2CCC(C(c3ccccc3)N(C)C)CC2)Cc2ccccc2)c(C)c1 (stereo not drawn) [Example 483] | – | – | – | 38 | 34 | 65 | – | –
CN(C)C(c1ccccc1)C1CCC(NC(=O)COCCN(C)S(=O)(=O)c2c(Cl)cc(Cl)cc2Cl)CC1 (stereo not drawn) [Example 598, N-[4-(dimethylaminophenylmethyl)-cyclohexyl]-2-{2-[methyl-(2,4,6-trichlorobenzenesulfonyl)-amino]-ethoxy}-acetamide] | – | – | – | – | 86 | – | 91 | 75
CN(Cc1ccccc1)C(c1ccccc1)C1CCC(NC(=O)COCCN(C)S(=O)(=O)c2c(Cl)cc(Cl)cc2Cl)CC1 (stereo not drawn) [Example 599, N-{4-[(benzylmethylamino)-phenylmethyl]-cyclohexyl}-2-{2-[methyl-(2,4,6-trichlorobenzenesulfonyl)-amino]-ethoxy}-acetamide] | – | -6 | – | – | – | – | 91 | 33
CN(C)C(c1ccccc1)C1CCC(NC(=O)COCCN(C2CC2)S(=O)(=O)c2c(Cl)cc(Cl)cc2Cl)CC1 (stereo not drawn) [Example 600, 2-{2-[cyclopropyl-(2,4,6-trichlorobenzenesulfonyl)-amino]-ethoxy}-N-[4-(dimethylaminophenylmethyl)-cyclohexyl]-acetamide] | – | 101 | – | – | – | – | 95 | 60
CN(CCOCC(=O)NC1CCC(C(c2ccccc2)N2CCCCC2)CC1)S(=O)(=O)c1c(Cl)cc(Cl)cc1Cl (stereo not drawn) [Example 601, 2-{2-[methyl-(2,4,6-trichlorobenzenesulfonyl)-amino]-ethoxy}-N-[4-(phenylpiperidin-1-yl-methyl)-cyclohexyl]-acetamide] | – | 78 | – | – | – | – | 45 | 75
O=C(COCCN(C1CC1)S(=O)(=O)c1c(Cl)cc(Cl)cc1Cl)NC1CCC(C(c2ccccc2)N2CCCCC2)CC1 (stereo not drawn) [Example 602, 2-{2-[cyclopropyl-(2,4,6-trichlorobenzenesulfonyl)-amino]-ethoxy}-N-[4-(phenylpiperidin-1-ylmethyl)-cyclohexyl]-acetamide] | – | 81 | – | – | – | – | 55 | 51
